Data reported in patent US8513195B2, “Treatment of mood and anxiety disorders” (priority 2008, dated 2013).

Key:
[1] = tested on: mice; test: social defeat stress (SDS) test; format: in vivo, mouse; settings: peptide 1 mg/kg; for SDS-induced social avoidance (time spend interacting, TSI): defeated mice, treated 15 or 21 days
From the text: (A) Data represent means+/−SE of time spend interacting (TSI) with the cage, in the absence (non-hatched bars) or presence (hatched bars) of the target. When target is present, control mice engage in active social behaviour, seen as an increase of TSI (panel a), while vehicle-treated defeated mice (panel b; white bars) show lower TSI, indicating social avoidance.
In the social defeat stress test (SDS), mice were exposed repeatedly (2 week) to aggressive mice; controls were gently handled. Subsequently, the aggressors were removed. Mice were treated with vehicle or TAT-DEF-Elk1 (1 mg/kg) for 15 or 21 days, and then tested for SDS-induced social avoidance. The test box contained a perforated plastic cage that was empty for the first test session and that held a neutral mouse (target) for the second test session.

[2] = tested on: mice; test: mouse tail suspension test (TST); format: in vivo; settings: i.p., peptide 90 min, desipramine and fluoxetine (20 mg/kg) 30 min prior to test, 5 min trial
Description: (§1) In these tests experimental animals are exposed to inescapable aversive situations (hanging by the tail, being into the water) and in response show alternate periods of agitation and immobility reflecting “attempts to escape” and ‘behavioural resignation” respectively.
(§2) The details of the experimental protocols used are as follows: mice were injected i.p. with vehicle, different doses of the peptide TAT-DEF-Elk-1, of a scrambled peptide (serving as control), of the MEK inhibitor SL327, or with the reference antidepressants fluoxetine (20 mg/kg) or desipramine (20 mg/kg), at appropriate time points before the test trial.
(§3) In the TST, each mouse was tested in an individual cubicle while suspended from a tail hanger with adhesive tape wrapped around its tail (1.5-2 cm from tip) 80 cm above the floor. The trial was conducted for 5 min, during which the duration of immobility was measured automatically (BIOSEB, France). For the FST, mice were placed in clear plastic cylinders (diameter 10 cm; height 25 cm) filled with water at 6 cm height (22-25° C.) for 6 min. A blinded observer scored the duration of immobility manually during the last 4 min of the 6-min test.

[3] = tested on: mice; test: mouse forced swimming test (FST); format: in vivo; settings: i.p., peptide 90 min, desipramine (20 mg/kg) 30 min prior to test, last 4 min of 6-min test
Description: as §1, §2, §3

[4] = tested on: mice; test: unpredictable chronic mild stress paradigm (UCMS); format: in vivo, mouse; settings: for UCMS-induced immobility in the TST / sucrose preference (% of sugar of total consumption): end of 3-week UCMS, peptide 1 mg/kg or fluoxetine 20 mg/kg once daily
From the text: We have also assessed the effects of the TAT-DEF-Elk1 peptide in the unpredictable chronic mild stress paradigm ([…] is used as a pertinent model of depression with aetiological validity. In UCMS protocols animals are subjected for a long period to different non-anticipated stressors. Chronic exposure to stress results to a syndrome in mice that reproduces symptoms of depression, including increased resignation, anxiety-like behavior, decreased consumption of palatable food, and physiological changes. Chronic administration of compounds with antidepressant activity reverses these changes. The protocol that we have used consists of three weeks of UCMS, during which mice were subjected to various stressors according to a 'random' schedule. Body weight and coat state were assessed weekly, as markers of the progression of the UCMS-evoked syndrome. At the end of the 3 week period the emotional state of the mice was tested in behavioral tests of emotionality and of depression-like behaviors (FIG. 3A). Experimental groups of mice were as follows: (i) non-stressed mice: these were group housed and were handled and maintained under standard laboratory conditions (Group 1; FIG. 3B), (ii) stressed mice: these were maintained under standard laboratory conditions but were isolated in small individual cages. During the three week protocol they were exposed to three mild stressors per day. Stressed-mice were treated either with vehicle (Group 2; FIG. 3B), with the peptide (1 mg/kg; once daily), or with the reference antidepressant fluoxetine (20 mg/kg; once daily) (Group 3; FIG. 3B). Treatment with vehicle or compounds started at the beginning of the UCMS and lasted throughout the three week period. At the end of the UCMS paradigm, mice were tested for depressive-like responses, such as passivity and resignation measured as increased immobility in the tail suspension test and anhedonia measured as the preference to sucrose.

[5] = tested on: mice; settings: described in the literature; cited from earlier work
[6] = tested on: plasma corticosterone; test: plasma corticosterone after 30 min restraint stress (RIA); format: in vivo, C57BL/6J mice
Description: Data represent means+/−SE of plasma corticosterone in banal conditions (non-stressed, light grey bars) and immediately after a 30-min restraint stress (dark grey bars); vehicle or the TAT-DEF-Elk1 peptide were administered […] before the beginning of stress; *p<0.05 as compared to non-stressed; #p<0.05 as compared to vehicle-treated.
In the second experiment C57BL/6J mice (10 weeks old) were injected with TAT-DEF-Elk1 peptide or vehicle; 1 h30 after the injection the mice were subjected to a 30 min restraint stress i.e. mice were confined individually in a 50 ml Falcon tube in which a hole was made at the top for the mice to breathe. Mice were decapitated directly after restraint, blood was collected in 2 ml eppendorfs containing EDTA at 4° C. Samples were centrifuged for 15 min at 760 g, plasma was collected and corticosterone assessed using the Corticosterone Double Antibody 125-I RIA kit (MP BIOMEDICAL).

[7] = tested on: ERK; test: tail suspension-induced ERK phosphorylation (immunochemistry); format: in vivo, mouse; settings: 2 mg/kg, 1 h30 before 10 min TST; perfused 20 min after start
Description: (§4) In the first experiment, TAT-DEF-Elk-1 peptide (2 mg/kg) or vehicle were administrated 1 h30 before a 10 min tail suspension trial (TST). Mice were perfused 20 min after starting the TST test and phosphorylation of ERK and Elk1 was assessed with immunochemistry.

[8] = tested on: Elk1; test: tail suspension-induced Elk1 phosphorylation in medial prefrontal cortex (immunochemistry); format: in vivo, mouse; settings: 2 mg/kg, 1 h30 before 10 min TST; perfused 20 min after start
Description: as §4

[9] = stressed mice, peptide 1 mg/kg once daily for three weeks

Molecule | SDS-induced social avoidance (time spend interacting, TSI) [1] | immobility in the TST [2] | immobility in the FST [3] | UCMS-induced immobility in the TST [4] | sucrose preference (% of sugar of total consumption) [4] | duration of administration after which antidepressant action in the SDS test [5] | duration of administration after which active in the SDS test [1] | stress induced elevation of plasma corticosterone ([6]; immediately after 30-min restraint stress, injected 1 h30 before) | basal plasma level corticosterone ([6]; non-stressed mice) | tail suspension-induced ERK phosphorylation [7] | UCMS-induced body weight loss [4, 9] | UCMS-induced degradation of the coat state [4, 9] | tail suspension-induced Elk1 phosphorylation in mPFCx [8]
CNCCCN1c2ccccc2CCc2ccccc21 [desipramine, reference compound] | did not have any effect | of similar magnitude of that of fluoxetine and desipramine | antidepressant-like effects similar to the classical antidepressant desipramine |  |  |  |  |  |  |  |  |  | 
CNCCC(Oc1ccc(C(F)(F)F)cc1)c1ccccc1 (stereo not shown) [fluoxetine, reference compound] |  | of similar magnitude of that of fluoxetine and desipramine |  | similarly to the reference antidepressant fluoxetine | similarly to the reference antidepressant fluoxetine |  |  |  |  |  |  |  | 
CN(C)CCCN1c2ccccc2CCc2ccccc21 [imipramine] |  |  |  |  |  | 39 days |  |  |  |  |  |  | 
GRKKRRQRRRPPSPAKLSFQFPSSGSAQVHI (selective peptide inhibitor of Elk-1 activation - TAT-DEF-Elk-1) [TAT-DEF-Elk-1 peptide] | fully reverses this behaviour | reduced immobility in the TST similar to classical antidepressants | induced antidepressant-like effects in the FST | reduced UPMS-induced immobility in the TST | fully restored UCMS-blunted sucrose preference |  | 15 days | markedly reduces stress induced-elevations in plasma level corticosterone | does not affect basal plasma level corticosterone | does not inhibit tail suspension-induced ERK phosphorylation | reversed the progressive weight loss induced by UCMS | diminished the degradation of the coat state | reduces selectively tail suspension-induced Elk1 phosphorylation
